For orientation: IC50 means the concentration needed to halve the response being measured. Read a high IC50 as weaker potency.

Each structure is given as a SMILES string.

The target of this experiment is T1, Prostaglandin G/H synthase 1 (Ovis aries, UniProt P05979).
T1 sequence (P05979 whole entry): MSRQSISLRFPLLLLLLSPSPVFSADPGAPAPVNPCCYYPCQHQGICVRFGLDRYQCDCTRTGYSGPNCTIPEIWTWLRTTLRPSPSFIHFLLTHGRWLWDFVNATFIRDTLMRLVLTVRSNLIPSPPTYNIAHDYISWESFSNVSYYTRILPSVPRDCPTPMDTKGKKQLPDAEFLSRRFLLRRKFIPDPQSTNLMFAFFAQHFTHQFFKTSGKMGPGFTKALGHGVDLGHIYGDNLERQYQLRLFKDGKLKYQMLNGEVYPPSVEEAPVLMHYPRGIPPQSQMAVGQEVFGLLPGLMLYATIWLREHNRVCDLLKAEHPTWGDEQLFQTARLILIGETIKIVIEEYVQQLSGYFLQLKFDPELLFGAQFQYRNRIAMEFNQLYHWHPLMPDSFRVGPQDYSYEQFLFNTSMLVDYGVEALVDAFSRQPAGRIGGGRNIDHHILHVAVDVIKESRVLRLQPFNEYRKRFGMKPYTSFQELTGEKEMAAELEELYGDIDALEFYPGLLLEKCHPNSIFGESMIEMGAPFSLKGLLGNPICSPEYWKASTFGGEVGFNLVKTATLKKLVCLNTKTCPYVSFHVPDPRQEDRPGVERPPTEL
The experiment can be described thus: In vitro COX Inhibition Assay. The protocol:
The peroxidase activity is assayed colorimetrically by monitoring the appearance of oxidised N,N,N',N'-tetramethyl-p-phenylenediamine (TMPD) at 590 nm.
Compound `O=c1nc(-c2ccccc2)c(-c2ccccc2)nn1Cc1nnc(Nc2ccc(Cl)cc2)o1` [2-((5-(4-Chlorophenylamino)-1,3,4-oxadiazol-2-yl)methyl)-5,6-diphenyl-1,2,4-triazin-3(2H)-one (3d)] showed an IC50 of 64.5 µM.

Take `O=c1nc(-c2ccccc2)c(-c2ccccc2)nn1Cc1nnc(Nc2ccc(Cl)cc2)s1` [2-((5-(4-Chlorophenylamino)-1,3,4-thiadiazol-2-yl)methyl)-5,6-diphenyl-1,2,4-triazin-3(2H)-one (4d)]: 62.2 µM corresponded to half-maximal inhibition (IC50).

As to `COc1ccc(Nc2nnc(Cn3nc(-c4ccccc4)c(-c4ccccc4)nc3=O)o2)cc1` [2-((5-(4-Methoxyphenylamino)-1,3,4-oxadiazol-2-yl)methyl)-5,6-diphenyl-1,2,4-triazin-3(2H)-one (3c)], half-maximal inhibition (IC50) was put at 60.5 µM.

`COc1ccc(Nc2nnc(Cn3nc(-c4ccccc4)c(-c4ccccc4)nc3=O)s2)cc1` [2-((5-(4-Methoxyphenylamino)-1,3,4-thiadiazol-2-yl)methyl)-5,6-diphenyl-1,2,4-triazin-3(2H)-one (4c)] showed an IC50 of 60.1 µM. This IC50 and that of the compound before are within 1.5-fold of each other. In the case of `O=c1nc(-c2ccccc2)c(-c2ccccc2)nn1Cc1nnc(Nc2ccc([N+](=O)[O-])cc2)o1` [2-((5-(4-Nitrophenylamino)-1,3,4-oxadiazol-2-yl)methyl)-5,6-diphenyl-1,2,4-triazin-3(2H)-one (3e)] it was 62.4 µM; in that of `O=c1nc(-c2ccccc2)c(-c2ccccc2)nn1Cc1nnc(Nc2ccc([N+](=O)[O-])cc2)s1` [2-((5-(4-Nitrophenylamino)-1,3,4-thiadiazol-2-yl)methyl)-5,6-diphenyl-1,2,4-triazin-3(2H)-one (4e)], 63.2 µM.

(Values after BindingDB's records for doi:10.1016/j.bioorg.2016.10.003 (Indian Institute of Technology (Banaras Hindu University), 2016).)
